Laboratory results: patent US5077281A, “Novel use of taurolin” (priority 1985, dated 1991)
In brackets after ≈: the same amount, converted by molar mass. Entries after “also recorded” stand apart in the source; their conditions may differ.

Tests used:
[1] = tested on: blood plasma; test: suppression of blood coagulation on addition to blood plasma; type: biochemical, human; conditions: 5 ml. pooled plasma, up to max. 50 mg.
Description: (§1) Therefore, in comparison with known anti-coagulants, the use of taurolin has the advantage that a sufficient blood coagulatability always still remains and, therefore, an overdosing is not possible.
(§2) Samples of, in each case, 5 ml. of a pooled plasma of various experimental persons were mixed with increasing amounts of taurolin, namely, with amounts of 0 (1), 10 (2), 20 (3), 30 (4), 40 (5) and 50 (6) mg. of taurolin/5 ml. plasma (the figures given in brackets give the sample numbers).

[2] = tested on: pooled plasma of various experimental persons; test: Quick test on pooled plasma mixed with taurolin; type: biochemical, human; conditions: for Quick test (%): 30 minutes
Description: as §1, §2
(§3) The Quick test and the PTT test was carried out for the samples 1 to 6 and the following results (30 minutes) obtained (Table 1): […]

[3] = tested on: pooled plasma of various experimental persons; test: PTT test on pooled plasma mixed with taurolin; type: biochemical, human; conditions: for PTT: 30 minutes
Description: as §1, §2, §3

[4] = tested on: coagulation factor II; test: coagulation factor analysis in plasma; type: biochemical, human
[5] = tested on: coagulation factor V; test: coagulation factor analysis in plasma; type: biochemical, human
[6] = tested on: coagulation factor VII; test: coagulation factor analysis in plasma; type: biochemical, human
[7] = tested on: coagulation factor X; test: coagulation factor analysis in plasma; type: biochemical, human
[8] = tested on: coagulation factor IX; test: coagulation factor analysis in plasma; type: biochemical, human
[9] = tested on: coagulation factor XI; test: coagulation factor analysis in plasma; type: biochemical, human
[10] = target: T1, coagulation factor XII (Homo sapiens, UniProt P00748); test: coagulation factor analysis in plasma; type: biochemical
T1 construct: clotting factor activity assay
T1 sequence (P00748 20-615): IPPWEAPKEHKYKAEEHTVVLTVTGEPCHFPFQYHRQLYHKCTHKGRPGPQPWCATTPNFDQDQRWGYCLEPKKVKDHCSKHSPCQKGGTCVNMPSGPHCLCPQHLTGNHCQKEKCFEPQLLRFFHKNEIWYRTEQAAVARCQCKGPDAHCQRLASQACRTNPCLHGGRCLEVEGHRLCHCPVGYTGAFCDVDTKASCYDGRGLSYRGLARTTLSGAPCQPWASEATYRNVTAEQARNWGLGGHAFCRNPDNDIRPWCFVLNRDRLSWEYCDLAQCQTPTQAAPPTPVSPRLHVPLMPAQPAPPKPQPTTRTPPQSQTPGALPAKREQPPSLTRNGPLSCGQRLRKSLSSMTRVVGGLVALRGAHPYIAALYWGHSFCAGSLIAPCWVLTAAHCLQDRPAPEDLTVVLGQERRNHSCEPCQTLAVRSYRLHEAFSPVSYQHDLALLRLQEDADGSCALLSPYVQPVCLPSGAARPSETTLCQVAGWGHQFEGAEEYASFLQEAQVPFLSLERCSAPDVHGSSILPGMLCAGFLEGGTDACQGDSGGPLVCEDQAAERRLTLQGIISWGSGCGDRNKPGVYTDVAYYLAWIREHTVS

[11] = tested on: coagulation factor VIII; test: coagulation factor analysis in plasma; type: biochemical, human
[12] = tested on: fresh blood; test: fibrin deposition on taurolin-treated cellulose acetate foils in contact with fresh blood; set-up: species or system human
[13] = solubility; type: physicochemical; conditions: 50 mg./5 ml. blood plasma corresponds to a 1% solution; read-out: solubility limit
[14] = tested on: antithrombin III; test: function of antithrombin III; type: biochemical
[15] = tested on: blood coagula on the artificial surface; test: deposition of blood coagula on taurolin-contacted artificial surface in vivo; conditions: after contact of synthetic resin or metal surface with taurolin, implantation in organism with blood flow
Description: Therefore, this coagulation action can serve for the use of the taurolin for the treatment of surfaces of medical apparatus which are temporarily introduced into the blood stream, such as e.g. vein catheters (which, untreated, tend to blockage due to blood coagula which again represents a breeding place for bacteria, whereby the danger of a sepsis is brought about). The treatment of the apparatus can be carried out e.g. with an aqueous taurolin solution, especially a 1% aqueous taurolin solution. By means of an intermittent rinsing of vascular catheters, it is, in this way e.g. possible to prevent the coagula formation on the catheter tips.

[16] = cited from earlier work
[17] = tested on: blood plasma; conditions: "Taurolin", Bruckner and Pfirrmann 1985; cited from earlier work
[18] = 10 mg. taurolin/5 ml. plasma (sample 2)
[19] = 20 mg. taurolin/5 ml. plasma (sample 3)
[20] = 30 mg. taurolin/5 ml. plasma (sample 4)
[21] = 40 mg. taurolin/5 ml. plasma (sample 5)
[22] = 50 mg. taurolin/5 ml. plasma (sample 6)
[23] = maximum possible dosaging in the blood

Compound: heparin
- suppression of blood coagulation [1]: completely suppressed

Compound: O=S1(=O)CCN(CN2CCS(=O)(=O)NC2)CN1 [taurolin, 4,4'-Methylene-bis-(tetrahydro-2H-1,2,4-thiadiazine-1,1-dioxide)]
- Quick test (%) [2, 18]: 65%
- Quick test (%) [2, 19]: 53%
- Quick test (%) [2, 20]: 44%
- Quick test (%) [2, 21]: 39%
- Quick test (%) [2, 22]: 35%
- Quick value (lowest reached) [2, 23]: ≥ 20%
- PTT [3, 18]: 38.0 s
- PTT [3, 19]: 43.0 s
- PTT [3, 20]: 48.8 s
- PTT [3, 21]: 55.9 s
- PTT [3, 22]: 61.8 s
- PTT value (highest reached) [3, 23]: ≤ 60 s
- coagulation factor II [4, 18]: 96%
- coagulation factor II [4, 19]: 87%
- coagulation factor II [4, 20]: 90%
- coagulation factor II [4, 21]: 75%
- coagulation factor II [4, 22]: 74%
- coagulation factor V [5, 18]: 121%
- coagulation factor V [5, 19]: 110%
- coagulation factor V [5, 20]: 92%
- coagulation factor V [5, 21]: 81%
- coagulation factor V [5, 22]: 79%
- coagulation factor VII [6, 18]: 79%
- coagulation factor VII [6, 19]: 74%
- coagulation factor VII [6, 20]: 74%
- coagulation factor VII [6, 21]: 77%
- coagulation factor VII [6, 22]: 73%
- coagulation factor X [7, 18]: 75%
- coagulation factor X [7, 19]: 65%
- coagulation factor X [7, 20]: 56%
- coagulation factor X [7, 21]: 53%
- coagulation factor X [7, 22]: 50%
- coagulation factor IX [8, 18]: 153%
- coagulation factor IX [8, 19]: 81%
- coagulation factor IX [8, 20]: 63%
- coagulation factor IX [8, 21]: 65%
- coagulation factor IX [8, 22]: 68%
- coagulation factor XI [9, 18]: 301%
- coagulation factor XI [9, 19]: 197%
- coagulation factor XI [9, 20]: 140%
- coagulation factor XI [9, 21]: 83%
- coagulation factor XI [9, 22]: 47%
- direct action on the Factor XII of the coagulation system [10]: marked direct action
- activity at 2000 µg/mL ([10]; human, 10 mg. taurolin/5 ml. plasma (sample 2)): 177%
- activity at 4000 µg/mL ([10]; human, 20 mg. taurolin/5 ml. plasma (sample 3)): 77%
- activity at 6000 µg/mL ([10]; human, 30 mg. taurolin/5 ml. plasma (sample 4)): 64%
- activity at 8000 µg/mL ([10]; human, 40 mg. taurolin/5 ml. plasma (sample 5)): 55%
- activity at 10000 µg/mL ([10]; human, 50 mg. taurolin/5 ml. plasma (sample 6)): 61%
- coagulation factor VIII [11, 18]: 48%
- coagulation factor VIII [11, 19]: 21%
- coagulation factor VIII [11, 20]: 13%
- coagulation factor VIII [11, 21]: 6%
- coagulation factor VIII [11, 22]: 6%
- blood coagulation or fibrin deposition on the wall ([12]; cellulose acetate foil contacted with taurolin/blood plasma mixture (taurolin 1% in plasma), rinsed, fresh blood 30 minutes at 37° C.): no blood coagulation or fibrin deposition on the wall
- fibrin fibre deposition on the surface (electron raster photographs) ([12]; cellulose acetate foil treated with 15 aqueous solution of taurolin 30 minutes at 37° C., then fresh blood 30 minutes at 37° C.): no fibrin fibre deposition on the surface could be ascertained
- solubility [13]: 10000 µg/mL (≈ 35.2 mM)
- function of antithrombin III [14]: inhibits dependent upon concentration
- suppression of blood coagulation [1]: not completely suppressed
- deposition of blood coagula on the artificial surface in vivo [15]: continuously effectively prevents the deposition of blood coagula; also recorded: effectively continuously prevents the deposition of blood coagula
- solubility in water [16]: about 1%
- influence on blood coagulation as stated in the literature [17]: does not influence the blood coagulation
